From patent US20140221286A1, “SODIUM CHANNEL BLOCKERS REDUCE GLUCAGON SECRETION” (Gilead Sciences, Inc., priority 2011, published 2014)

How the values were obtained:
[1] = system: α-TC1 clone 9 cells; assay type: cell-based; conditions: for Glucagon Secretion % Inhibition: veratridine-induced (30 μM for 1 hour), at a given concentration (not given)
Protocol: (§1) Voltage-dependent block (VDB) of […] was determined by whole-cell voltage-clamp recordings of sodium current using a QPatch 16× automated electrophysiological system in HEK 293 cells overexpressing Nav 1.3 and Nav 1.7 sodium channels, respectively. VDB of peak current was measured using an 8 s conditioning prepulse (to -55 mV for NaV1.3 and to −60 mV for […]) followed by a test pulse (0 mV, 20 ms). Currents are normalized to the peak current recorded in the absence of drug and expressed as percent inhibition. […] Glucagon secretion in the cells was induced by the treatment with veratridine at 30 μM for 1 hour in Krebs-Ringer buffer containing 0.1% BSA. Percent inhibition of glucagon secretion by Na channel blockers was calculated from the reduction of veratridine-induced glucagon secretion in the absence of drug.
Cells were seeded at 0.4×10^5/well in 96-well plates and allowed to recover for 1 day. The media was then changed to serum-free DMEM and incubated overnight. Cells were then treated with sodium-channel blockers in the presence of veratridine (15 μM) in Krebs-Ringer buffer containing 0.1% BSA and 3 mM glucose for 1 h. Supernatants were collected and stored at −80° C. until analysis. Glucagon levels were measured by an ELISA kit.

[2] = molecular target: T1, hNaV1.3 (Homo sapiens, UniProt Q9NY46); assay: Voltage-dependent block (VDB) of hNaV1.3, QPatch whole-cell voltage-clamp in HEK-293 cells; assay type: cell-based; conditions: 8 s prepulse to -55 mV; at a given concentration (not given)
T1 construct: (Vanderbilt University, Nashville, Tenn.)
T1 sequence (Q9NY46 1-1951 isoform Q9NY46-4): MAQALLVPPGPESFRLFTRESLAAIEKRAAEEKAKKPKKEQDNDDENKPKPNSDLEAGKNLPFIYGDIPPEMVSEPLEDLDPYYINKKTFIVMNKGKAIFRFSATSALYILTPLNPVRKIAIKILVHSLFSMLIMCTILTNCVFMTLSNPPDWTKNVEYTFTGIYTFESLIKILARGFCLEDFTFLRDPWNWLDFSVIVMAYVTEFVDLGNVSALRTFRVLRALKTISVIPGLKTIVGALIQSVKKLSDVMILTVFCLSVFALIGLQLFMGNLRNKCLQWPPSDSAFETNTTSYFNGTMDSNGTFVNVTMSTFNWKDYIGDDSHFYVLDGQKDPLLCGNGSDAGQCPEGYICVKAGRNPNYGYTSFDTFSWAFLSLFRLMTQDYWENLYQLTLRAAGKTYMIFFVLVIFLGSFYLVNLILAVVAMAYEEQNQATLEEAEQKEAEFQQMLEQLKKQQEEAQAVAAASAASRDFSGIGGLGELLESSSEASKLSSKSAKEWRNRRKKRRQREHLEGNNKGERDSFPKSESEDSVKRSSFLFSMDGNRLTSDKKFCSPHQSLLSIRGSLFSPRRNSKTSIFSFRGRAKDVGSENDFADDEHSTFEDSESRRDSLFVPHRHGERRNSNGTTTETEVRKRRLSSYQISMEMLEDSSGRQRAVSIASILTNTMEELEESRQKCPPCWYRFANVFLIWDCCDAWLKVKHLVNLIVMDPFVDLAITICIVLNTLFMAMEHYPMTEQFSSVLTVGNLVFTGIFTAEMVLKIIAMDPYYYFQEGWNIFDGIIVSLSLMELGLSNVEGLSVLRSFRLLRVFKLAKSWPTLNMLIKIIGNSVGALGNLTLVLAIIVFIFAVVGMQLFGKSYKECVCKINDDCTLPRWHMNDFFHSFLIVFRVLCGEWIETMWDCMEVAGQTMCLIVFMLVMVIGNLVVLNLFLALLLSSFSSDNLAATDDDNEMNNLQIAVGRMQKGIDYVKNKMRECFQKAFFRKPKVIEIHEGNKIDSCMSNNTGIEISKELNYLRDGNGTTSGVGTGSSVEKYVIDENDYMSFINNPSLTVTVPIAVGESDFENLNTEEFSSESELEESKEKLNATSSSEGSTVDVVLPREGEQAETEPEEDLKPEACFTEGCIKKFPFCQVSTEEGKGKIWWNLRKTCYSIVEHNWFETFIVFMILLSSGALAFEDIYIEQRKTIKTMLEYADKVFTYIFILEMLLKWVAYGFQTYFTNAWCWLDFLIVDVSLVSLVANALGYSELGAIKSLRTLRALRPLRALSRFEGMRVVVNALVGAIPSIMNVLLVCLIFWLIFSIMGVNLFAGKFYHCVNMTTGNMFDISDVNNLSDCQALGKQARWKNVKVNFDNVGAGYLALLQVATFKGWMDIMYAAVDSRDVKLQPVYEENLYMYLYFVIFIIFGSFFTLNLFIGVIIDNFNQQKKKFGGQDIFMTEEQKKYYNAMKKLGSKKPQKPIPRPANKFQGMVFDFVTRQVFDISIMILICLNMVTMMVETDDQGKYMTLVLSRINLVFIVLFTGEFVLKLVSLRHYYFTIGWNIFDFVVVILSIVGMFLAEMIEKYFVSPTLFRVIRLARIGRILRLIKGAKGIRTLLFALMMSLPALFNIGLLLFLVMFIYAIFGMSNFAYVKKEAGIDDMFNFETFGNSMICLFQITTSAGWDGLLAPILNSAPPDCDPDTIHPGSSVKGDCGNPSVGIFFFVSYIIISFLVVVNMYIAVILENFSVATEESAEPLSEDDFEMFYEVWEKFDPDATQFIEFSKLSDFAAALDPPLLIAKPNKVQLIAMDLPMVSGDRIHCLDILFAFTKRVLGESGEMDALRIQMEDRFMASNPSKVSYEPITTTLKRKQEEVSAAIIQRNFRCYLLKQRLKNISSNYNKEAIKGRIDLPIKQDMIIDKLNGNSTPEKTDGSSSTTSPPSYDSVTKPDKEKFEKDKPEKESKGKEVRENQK
T1 sequence (Q07699 19-218 partner): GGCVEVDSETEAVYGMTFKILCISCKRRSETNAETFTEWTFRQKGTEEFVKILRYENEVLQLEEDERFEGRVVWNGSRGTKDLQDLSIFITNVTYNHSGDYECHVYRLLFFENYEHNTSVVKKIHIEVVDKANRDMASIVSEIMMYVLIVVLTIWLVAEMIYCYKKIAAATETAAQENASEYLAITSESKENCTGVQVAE
T1 sequence (O60939 30-215 partner): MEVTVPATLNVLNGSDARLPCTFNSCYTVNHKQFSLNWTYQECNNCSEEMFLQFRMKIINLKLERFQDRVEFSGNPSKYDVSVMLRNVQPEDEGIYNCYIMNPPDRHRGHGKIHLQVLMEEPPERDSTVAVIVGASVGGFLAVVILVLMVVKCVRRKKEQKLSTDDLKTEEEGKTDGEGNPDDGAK
Protocol: as §1
(Vanderbilt University, Nashville, Tenn.). The cells were continuously maintained in a humidified, 5% CO2 atmosphere at 37° C. in DMEM high glucose growth medium supplemented with 10% FBS, 2 mM L-glutamine, 100 U/mL penicillin, 100 μg/mL streptomycin, 1 mg/mL G418 and 3 μg/mL puromycin.
Whole-cell voltage-clamp recordings were used to measure the activity of test compounds against hNaV1.3 and hNaV1.7. Sodium currents were recorded at room temperature using a QPatch 16× automated electrophysiological system (Sophion Bioscience, Copenhagen, Denmark). Cells were washed with PBS and then incubated with Detachin for 2 minutes at room temperature. Cells were then resuspended in growth media, pelleted by centrifugation and resuspended in CHO-S-SFM II serum free media supplemented with 100 U/mL penicillin, 100 μg/mL streptomycin and 10 mM HEPES. The cells were allowed to recover for 30 min at room temperature with constant stirring and then loaded into the QPatch cell holder.
The cells were loaded into primed single hole (2 MΩ) large QPlates and the whole-cell configuration was established using the default protocol. Cells were allowed to stabilize for 10 min after establishment of the whole-cell configuration before current was measured. […] All currents are low-pass Bessel filtered at 5 kHz and digitized at 50 kHz.
Specific voltage-clamp protocols assessing voltage-dependent block (VDB, also termed state-dependent block) are used. VDB of peak current was measured following an 8 s conditioning prepulse (to -55 mV for NaV1.3 and to −60 mV for NaV1.7) followed by a test pulse to 0 mV (20 ms). An interpulse (−120 mV, 10 ms) was used to recover non-drug bound channels from fast inactivation. The prepulse potential was determined by the steady-state inactivation curves for NaV1.3 and NaV1.7. […] Multiple applications of drug were used to ensure complete solution exchange and the cells were allowed to stabilize in the drug containing solution for two minutes. Currents were normalized to the peak current recorded in the absence of drug and expressed as percent inhibition.

Structure (SMILES)	Glucagon Secretion % Inhibition [1] [%]	hNav1.3 VDB % Inhibition [2] [%]	reduction of veratridine-induced increase of glucagon secretion ([1]; veratridine 15 μM, at 3 μM) [%]
COc1ccccc1OCC(O)CN1CCN(CC(=O)Nc2c(C)cccc2C)CC1 (racemic) [Ranolazine, ±-N-(2,6-dimethylphenyl)-4-[2-hydroxy-3-(2-methoxyphenoxy)-propyl]-1-piperazineacetamide]	29.99	11.21	–
FC(F)(F)Oc1ccc(-c2ccc3nnc(C(F)(F)F)n3c2)cc1 [Compound A, 6-(4-(trifluoromethoxy)phenyl)-3-(trifluoromethyl)-[1,2,4]triazolo[4,3-α]pyridine]	74.17	65.42	70±4
